# Source: ChEMBL document CHEMBL3046322, “Insect growth regulatory effects by diterpenes from Calceolaria talcana Grau & Ehrhart (Calceolariaceae: Scrophulariaceae) against Spodoptera frugiperda and Drosophila melanogaster” (2013)
# Active and inactive are the calls of the source. The calls are words filed in the database; no cut-off is given here.
# Columns and labels:
# [1] = test system: Spodoptera frugiperda; assay: Growth inhibitory activity against first-instar larval stage of Spodoptera frugiperda (fall armyworm) fed with compound incorporated diet assessed as weight gained at 50 ug/ml after 7 days (reference value: 100%); assay type: functional; set-up: scale not given: the % may be the effect or the level left
# [2] = test system: Spodoptera frugiperda; assay: Growth inhibitory activity against first-instar larval stage of Spodoptera frugiperda (fall armyworm) fed with compound incorporated diet assessed as weight gained at 35 ug/ml after 7 days (reference value: 100%); assay type: functional; set-up: scale not given: the % may be the effect or the level left
# [3] = test system: Spodoptera frugiperda; assay: Growth inhibitory activity against Spodoptera frugiperda (fall armyworm) larvae fed with compound containing diet assessed as relative growth index at 35 ug/ml (reference value: 1.0 no_unit); assay type: functional
# [4] = test system: Spodoptera frugiperda; assay: Growth inhibitory activity against Spodoptera frugiperda (fall armyworm) larvae fed with compound containing diet assessed as growth index at 20 ug/ml (reference value: 0.95 +/-0.02 no_unit); assay type: functional
# [5] = test system: Spodoptera frugiperda; assay: Growth inhibitory activity against Spodoptera frugiperda (fall armyworm) larvae fed with compound containing diet assessed as growth index at 5 ug/ml (reference value: 0.95 +/-0.02 no_unit); assay type: functional
# [6] = test system: Spodoptera frugiperda; assay: Growth inhibitory activity against Spodoptera frugiperda (fall armyworm) larvae fed with compound containing diet assessed as reduction in adult emergence at 20 ug/ml; assay type: functional
# [7] = test system: Spodoptera frugiperda; assay: Growth inhibitory activity against po dosed Spodoptera frugiperda (fall armyworm) larvae assessed as promotion of apolysis to fifth instar with ecdysis inhibition at 5 to 20 ug/ml; assay type: functional, organism-based
# [8] = test system: Drosophila melanogaster; assay: Insecticidal activity against Drosophila melanogaster larvae fed with compound incorporated diet assessed as mortality at 20 ug/ml after 72 hr by not choice test (reference value: 0%); assay type: functional
# [9] = test system: Drosophila melanogaster; assay: Insecticidal activity against Drosophila melanogaster larvae fed with compound incorporated diet assessed as mortality at 10 ug/ml after 72 hr by not choice test (reference value: 0%); assay type: functional
# [10] = test system: Spodoptera frugiperda; assay: Acute toxicity against last larval stage of Spodoptera frugiperda (fall armyworm) assessed as survival at 10 ug/ml applied topically onto abdomen measured after 24 hr (reference value: 98.8 +/-3.5%); assay type: functional
# [11] = test system: Spodoptera frugiperda; assay: Insecticidal activity against first-instar larval stage of Spodoptera frugiperda (fall armyworm) fed with compound incorporated diet assessed as mortality at 50 to 100 ug/ml after 7 days; assay type: functional
# [12] = test system: Spodoptera frugiperda; assay: Insecticidal activity against first-instar larval stage of Spodoptera frugiperda (fall armyworm) fed with compound incorporated diet assessed as mortality at 35 ug/ml after 21 days (reference value: 5.6%); assay type: functional; details: 504 h
# [13] = test system: Spodoptera frugiperda; assay: Growth inhibitory activity against first-instar larval stage of Spodoptera frugiperda (fall armyworm) fed with compound incorporated diet assessed as length gained at 10 ug/ml after 21 days (reference value: 100%); assay type: functional
# [14] = test system: Spodoptera frugiperda; assay: Growth inhibitory activity against first-instar larval stage of Spodoptera frugiperda (fall armyworm) fed with compound incorporated diet assessed as weight gained at 20 ug/ml after 21 days (reference value: 100%); assay type: functional
# [15] = test system: Spodoptera frugiperda; assay: Insecticidal activity against first-instar larval stage of Spodoptera frugiperda (fall armyworm) fed with compound incorporated diet assessed as mortality at 5 ug/ml after 7 days (reference value: 5.6%); assay type: functional; details: 168 h
# [16] = test system: Spodoptera frugiperda; assay: Growth inhibitory activity against first-instar larval stage of Spodoptera frugiperda (fall armyworm) fed with compound incorporated diet assessed as length gained at 35 ug/ml after 21 days (reference value: 100%); assay type: functional
# [17] = test system: Spodoptera frugiperda; assay: Growth inhibitory activity against Spodoptera frugiperda (fall armyworm) larvae fed with compound containing diet assessed as delay in time to pupation at 5 ug/ml; assay type: functional
# [18] = test system: Drosophila melanogaster; assay: Insecticidal activity against Drosophila melanogaster larvae fed with compound incorporated diet assessed as mortality at 35 ug/ml after 72 hr by not choice test (reference value: 0%); assay type: functional
# [19] = test system: Drosophila melanogaster; assay: Insecticidal activity against Drosophila melanogaster larvae fed with compound incorporated diet assessed as mortality at 5 ug/ml after 72 hr by not choice test (reference value: 0%); assay type: functional
# [20] = test system: Spodoptera frugiperda; assay: Growth inhibitory activity against Spodoptera frugiperda (fall armyworm) larvae fed with compound containing diet assessed as growth index at 50 ug/ml (reference value: 0.95 +/-0.02 no_unit); assay type: functional
# [21] = test system: Spodoptera frugiperda; assay: Growth inhibitory activity against Spodoptera frugiperda (fall armyworm) larvae fed with compound containing diet assessed as relative growth index at 50 ug/ml (reference value: 1.0 no_unit); assay type: functional
# [22] = test system: Spodoptera frugiperda; assay: Growth inhibitory activity against Spodoptera frugiperda (fall armyworm) larvae fed with compound containing diet assessed as reduction in survival pupation at >35 ug/ml; assay type: functional
# [23] = test system: Drosophila melanogaster; assay: Insecticidal activity against Drosophila melanogaster larvae fed with compound incorporated diet assessed as mortality at 100 ug/ml after 72 hr by not choice test (reference value: 0%); assay type: functional
# [24] = test system: Spodoptera frugiperda; assay: Acute toxicity against last larval stage of Spodoptera frugiperda (fall armyworm) assessed as survival at 70 ug/ml applied topically onto abdomen measured after 24 hr (reference value: 98.8 +/-3.5%); assay type: functional
# [25] = test system: Spodoptera frugiperda; assay: Acute toxicity against last larval stage of Spodoptera frugiperda (fall armyworm) assessed as survival at 50 ug/ml applied topically onto abdomen measured after 24 hr (reference value: 98.8 +/-3.5%); assay type: functional
# [26] = test system: Spodoptera frugiperda; assay: Acute toxicity against last larval stage of Spodoptera frugiperda (fall armyworm) assessed as survival at 35 ug/ml applied topically onto abdomen measured after 24 hr (reference value: 98.8 +/-3.5%); assay type: functional
# [27] = test system: Spodoptera frugiperda; assay: Acute toxicity against last larval stage of Spodoptera frugiperda (fall armyworm) assessed as survival at 20 ug/ml applied topically onto abdomen measured after 24 hr (reference value: 98.8 +/-3.5%); assay type: functional
# [28] = test system: Spodoptera frugiperda; assay: Growth inhibitory activity against Spodoptera frugiperda (fall armyworm) larvae fed with compound containing diet assessed as delay in time to pupation at 20 ug/ml; assay type: functional
structure (smiles),measurement,setting,value
C=CC(C)(C)C1=C(O)C(=O)c2ccccc2C1=O,Activity,[1],0%
same,Activity,[2],5%
same,Growth_index,[3],0.1
same,Growth_index,[4],0.12
same,Growth_index,[5],0.71
same,inhibition at 20 µg/mL,[6],0%
same,Activity,[7],Active
same,mortality at 20 µg/mL,[8],65%
same,mortality at 10 µg/mL,[9],30%
same,Activity,[10],6.8%
same,mortality,[11],100%
same,mortality at 35 µg/mL,[12],100%
same,Length gained relative to control,[13],39.8%
same,Weight gain relative to control,[14],9%
same,mortality at 5 µg/mL,[15],41.7%
same,Length gained relative to control,[16],4.1%
C=C[C@]1(C)CC[C@H]2C(=CC[C@@H]3[C@](C)(CO)CC[C@@H]4C[C@@]432)C1,Activity,[1],0%
same,Activity,[2],1.4%
same,Growth_index,[3],0.1
same,Growth_index,[4],0.19
same,Growth_index,[5],0.41
same,inhibition at 20 µg/mL,[6],0%
same,Time,[17],>24 days
same,Activity,[7],Active
same,mortality at 35 µg/mL,[18],100%
same,mortality at 20 µg/mL,[8],98%
same,mortality at 10 µg/mL,[9],30%
same,mortality at 5 µg/mL,[19],0%
same,Activity,[10],3.5%
same,mortality,[11],100%
same,mortality at 35 µg/mL,[12],100%
same,Length gained relative to control,[13],30.8%
same,Weight gain relative to control,[14],0%
same,mortality at 5 µg/mL,[15],20.8%
same,Length gained relative to control,[16],0%
CC(C)c1ccc2c(c1)CC[C@H]1[C@](C)(CO)CCC[C@]21C [POMIFERIN A],Activity,[1],41.3%
same,Activity,[2],42.3%
same,Growth_index,[20],0.54
same,Growth_index,[21],0.71
same,Growth_index,[3],0.75
same,Growth_index,[4],0.91
same,Growth_index,[5],0.97
same,inhibition at 20 µg/mL,[6],0%
same,inhibition (INH),[22],0%
same,Activity,[7],Active
same,mortality at 100 µg/mL,[23],82.9%
same,mortality at 20 µg/mL,[8],67%
same,mortality at 10 µg/mL,[9],13.3%
same,Activity,[24],0%
same,Activity,[25],3.9%
same,Activity,[26],6.9%
same,Activity,[27],51%
same,Activity,[10],69.1%
same,mortality at 35 µg/mL,[12],25%
same,Length gained relative to control,[13],59.4%
same,Weight gain relative to control,[14],50.6%
same,mortality at 5 µg/mL,[15],33.3%
same,Length gained relative to control,[16],37.4%
C[C@H]1[C@H](C)CC[C@]2(C(=O)O)CC[C@]3(C)C(=CC[C@@H]4[C@@]5(C)CC[C@H](O)C(C)(C)[C@@H]5CC[C@]43C)[C@H]12 [URSOLIC ACID],Activity,[1],32.5%
same,Activity,[2],49.2%
same,Growth_index,[4],0.28
same,Growth_index,[5],0.93
same,inhibition at 20 µg/mL,[6],0%
same,Time,[28],>24 days
same,Activity,[7],Active
same,mortality at 100 µg/mL,[23],100%
same,mortality at 20 µg/mL,[8],15.1%
same,mortality at 10 µg/mL,[9],7%
same,Activity,[26],7.9%
same,Activity,[27],20.1%
same,Activity,[10],52.9%
same,mortality,[11],100%
same,mortality at 35 µg/mL,[12],100%
same,Length gained relative to control,[13],48.4%
same,Weight gain relative to control,[14],30.1%
same,mortality at 5 µg/mL,[15],4.2%
same,Length gained relative to control,[16],0%
